This note sets out measurements from patent publication US20220220125A1, “FUSED ISOINDOLIN-1-ONE DERIVATIVES USEFUL AS GRK2 INHIBITORS” (Janssen Pharmaceutica NV, priority 2019, published 2022).

Some results are limits rather than exact numbers.

The test addresses T1, GRK2 (Homo sapiens, UniProt P25098).
T1 sequence (P25098 1-689): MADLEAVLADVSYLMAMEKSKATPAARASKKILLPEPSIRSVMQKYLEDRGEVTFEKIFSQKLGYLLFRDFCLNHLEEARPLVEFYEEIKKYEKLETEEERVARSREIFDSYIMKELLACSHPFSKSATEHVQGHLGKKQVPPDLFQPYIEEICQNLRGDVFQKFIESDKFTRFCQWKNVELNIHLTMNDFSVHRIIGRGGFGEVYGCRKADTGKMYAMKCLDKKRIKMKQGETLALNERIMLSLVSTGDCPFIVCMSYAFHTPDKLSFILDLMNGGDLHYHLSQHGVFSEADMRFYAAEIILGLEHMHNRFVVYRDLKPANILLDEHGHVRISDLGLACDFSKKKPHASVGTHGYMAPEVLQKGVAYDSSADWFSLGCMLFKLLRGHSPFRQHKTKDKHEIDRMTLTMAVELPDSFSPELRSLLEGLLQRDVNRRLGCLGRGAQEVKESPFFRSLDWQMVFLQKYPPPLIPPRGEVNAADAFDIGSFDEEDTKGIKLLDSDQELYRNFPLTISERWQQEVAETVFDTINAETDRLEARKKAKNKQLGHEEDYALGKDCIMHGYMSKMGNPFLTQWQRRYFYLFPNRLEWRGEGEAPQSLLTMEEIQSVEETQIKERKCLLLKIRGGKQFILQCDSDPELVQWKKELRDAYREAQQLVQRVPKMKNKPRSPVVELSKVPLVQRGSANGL
As to the kind of experiment: hGRK2 LANCE Ultra in vitro kinase assay. The format is biochemical. As to conditions: 10 nM GRK2; ATP 30 or 600 μM (not stated which); read-out: GRK2 Lancer IC50. As to the method:
hGRK2 LANCER In Vitro Assay
This assay is sensitive and requires as low as 10 nM enzyme, in a total volume of 10 μL. In addition, the ATP concentration can be varied over a broad range, without interfering with the assay or changing the assay condition. […] Testing inhibitors routinely at both high and low ATP concentrations also enables identification of potential non-ATP competitive inhibitors.
This assay measures IC50 values of test compounds (inhibitors) by monitoring GRK2 enzymatic activity at varying inhibitor concentrations.
Test compounds were dissolved in DMSO at 1 mM and were 3-fold serial diluted. The compound DMSO solutions were then added (100 nL) into a plate well using an acoustic dispenser. To each well was then added 20 nM GRK2 (5 μL) in assay buffer (20 mM HEPES, pH 7.5, 10 mM MgCl2, 0.001% Tween-20). The plate was sealed and centrifuged at 1000 rpm for 1 min. The plate and wells containing a mixture of GRK2 and test compound were incubated at ambient temperature for 30 min (prior to initializing the enzymatic reaction).
Enzyme reactions were initiated by the addition of 4.9 μL Substrates/Eu-Ab mix to each well. […] Final concentrations of reagents in the assays were as follows: 20 mM HEPES, pH 7.5; 10 mM MgCl2; 0.001% Tween-20 (w/v); 30 or 600 μM ATP; 200 nM ULight-peptide; 4 nM Eu-Ab; 10 nM GRK2; and 1% DMSO.
The plates were sealed and centrifuged at 1000 rpm for 1 min. For reactions at low ATP concentration (30 μM), reaction mixtures were incubated at ambient temperature for 120 min. For reactions at high ATP concentration (600 μM), reaction mixtures were incubated at ambient temperature for 60 min.
The enzyme reactions were quenched by addition of 10 μL of 12 mM EDTA in 1× LANCE detection solution to each well. The plates were then incubated at ambient temperature for 30 min. Time-resolved fluorescence signal of reactions were read on an EnVision or PHERAstar plate reader with the following parameters: Excitation wavelength=337 nm, emission wavelength (donor)=620 nm; emission wavelength (acceptor)=665 nm.
The raw HTRF data were converted to % active as follows:
% active=(sample−NC)/(PC−NC)*100
where NC is the mean of negative control (reactions without GRK2), and PC is the mean of positive control (reactions with GRK2 but without inhibitor). IC50 values were determined from a 4-parameter fit, using the following equation:
Y=Bottom+(Top−Bottom)/(1+10^((Log IC50-X)*Hill slope)),
where X=log10 of the compound concentration.
Background: TR-FRET usually uses a lanthanide donor and a delayed reading to cut background.
The term IC50 denotes the concentration needed to halve the response being measured. Consider `COc1cccc([C@H]2COC/C=C\CC3c4ccc(-c5cn[nH]c5)cc4C(=O)N32)c1` (mixture of isomers) [Compound 8], for which the IC50 amounted to 166 nM. The result for `COc1cccc([C@H]2COCCCCC3c4ccc(-c5cn[nH]c5)cc4C(=O)N32)c1` (mixture of isomers) [Compound 9] reads 1400 nM; that for `COc1cccc([C@H]2COC/C=C\CC3c4ccc(-c5cn[nH]c5)nc4C(=O)N32)c1` (mixture of isomers) [Compound 14], 1010 nM; that for `COc1cccc(N2CCCCC3c4ccc(-c5cn[nH]c5)cc4C(=O)N32)c1` (racemic) [Compound 15, (Rac)-1-(3-methoxyphenyl)-8-(1H-pyrazol-4-yl)-1,2,3,4,5,5a-hexahydro-10H-[1,2]diazepino[7,1-a]isoindol-10-one], 6 nM. For `COc1cccc(N2CC=CCC3c4ccc(-c5cn[nH]c5)cc4C(=O)N32)c1` (racemic) [Compound 16, 1-(3-methoxyphenyl)-8-(1H-pyrazol-4-yl)-1,2,5,5a-tetrahydro-10H-[1,2]diazepino[7,1-a]isoindol-10-one], the IC50 was 8 nM. The result for `COc1cccc(C2CCCCC3c4ccc(-c5cn[nH]c5)cc4C(=O)N23)c1` (single isomer, unassigned) [Compound 1, (7R*)-7-(3-methoxyphenyl)-3-(1H-pyrazol-4-yl)-7,8,9,10,11,11a-hexahydro-5H-azepino[2,1-a]isoindol-5-one] reads < 5 nM; that for `O=C1c2cc(-c3cn[nH]c3)ccc2C2CCCCC(c3cccc(O)c3)N12` (single isomer, unassigned) [Compound 2, (7S*)-7-(3-hydroxyphenyl)-3-(1H-pyrazol-4-yl)-7,8,9,10,11,11a-hexahydro-5H-azepino[2,1-a]isoindol-5-one], 8 nM; that for `COc1cccc(C2CCCCC3c4ccc(-c5cn[nH]c5)cc4C(=O)N23)c1` (single isomer, unassigned) [Compound 3, (7S*)-7-(3-methoxyphenyl)-3-(1H-pyrazol-4-yl)-7,8,9,10,11,11a-hexahydro-5H-azepino[2,1-a]isoindol-5-one], 9 nM. The result for `COc1cccc(C2CCCCC3c4ccc(-c5cn[nH]c5)cc4C(=O)N23)c1` (single isomer, unassigned) [Compound 5] reads 11 nM.

Regarding `O=C1c2cc(-c3cn[nH]c3)ccc2C2CCCCC(c3cccc(O)c3)N12` (single isomer, unassigned) [Compound 6, (7R*)-7-(3-hydroxyphenyl)-3-(1H-pyrazol-4-yl)-7,8,9,10,11,11a-hexahydro-5H-azepino[2,1-a]isoindol-5-one], the IC50 stood at 12 nM. The result for `COc1cc(F)cc(C2CCCCC3c4ccc(-c5cn[nH]c5)cc4C(=O)N23)c1` (stereo not drawn) [Compound 4] reads 9 nM; that for `COc1cc(F)cc(C2CCCCC3c4ccc(-c5cn[nH]c5)cc4C(=O)N23)c1` (stereo not drawn) [Compound 7], 24 nM.
